Measured values: patent US20210246115A1 (Bioimics AB, priority 2017, published 2021)
Values after ≈ are worked out from the molar mass of the structure shown. Counter-ions that a name gives are not always drawn. Like-named read-outs stand apart in the source and are kept apart here.

Tests used:
[1] = test system: Staphylococcus aureus subsp. aureus (ATCC29213); assay: MIC, broth microdilution (CLSI), Staphylococcus aureus ATCC29213; format: cell-based; settings: Staphylococcus aureus
[2] = test system: Escherichia coli (ATCC25922); assay: MIC, broth microdilution (CLSI), Escherichia coli; settings: Escherichia coli, ATCC25922, read-out: E. coli ATCC 25922 MIC, Table XIII
[3] = test system: E. coli RNase P RNA, M1 RNA; assay: Inhibition of bacterial RNase P activity, IC50 determination (cleavage of pATSerUG by M1 RNA); format: biochemical; settings: NI: No inhibition
[4] = test system: Staphylococcus aureus (ATCC25923); assay: MIC, broth microdilution (CLSI), Staphylococcus aureus ATCC25923; settings: Staphylococcus aureus, ATCC25923, read-out: S. aureus ATCC 25923 MIC
[5] = ATCC29213, read-out: S. aureus ATCC 29213 MIC, Table XIII
[6] = ATCC29213, Table XIII, read-out: S. aureus ATCC 29213 MIC

MIC [2] [µg/mL]	MIC [1, 6] [µg/mL]	IC50 [3] [µM]	MIC [4] [µg/mL]	Compound	MIC [1, 5] [µg/mL]
8	8			Cc1cccc(C(CCNCCCCN)c2cn(C3CCCCC3)c3ccccc23)c1.Cl.Cl (stereo not shown) [Compound 350, N1-(3-(1-cyclohexyl-1H-indol-3-yl)-3-(m-tolyl)propyl)butane-1,4-diamine salt]	
8	4			Cl.Cl.N[C@H]1CC[C@H](NCCC(c2cn(C3CCCCC3)c3ccccc23)C2CCCCC2)CC1 (stereo partly shown) [Compound 378]	
128	32			Cl.Cl.NCCCNCCC(c1cccnc1)c1cn(C2CCCCC2)c2ccccc12 (stereo not shown) [Compound 331, N1-(3-(1-cyclohexyl-1H-indol-3-yl)-3-(pyridin-3-yl)propyl)propane-1,3-diamine hydrochloride salt]	
8 (≈ 19.1 µM)	16 (≈ 38.1 µM)			Cc1cccc(C(CCNCC(O)CN)c2cn(C3CCCCC3)c3ccccc23)c1 (stereo not shown) [Compound 386, 1-amino-3-((3-(1-cyclohexyl-1H-indol-3-yl)-3-(m-tolyl)propyl)amino) propan-2-ol]	
16	16			Cl.Cl.NCCCNCCCc1cn(C2CCCCC2)c2ccc(Br)cc12 [Compound 359, N1-(3-(5-bromo-1-cyclohexyl-1H-indol-3-yl)propyl)propane-1,3-diamine hydrochloride salt]	
> 128	8			Cc1cccc(C(CCN)c2cn(C3CCCCC3)c3ccccc23)c1.Cl (stereo not shown) [Compound 352, 3-(1-cyclohexyl-1H-indol-3-yl)-3-(m-tolyl)propan-1-amine hydrochloride salt]	
8	8			CNCCCNCCC(c1cccc(C)c1)c1cn(C2CCCCC2)c2ccccc12.Cl.Cl (stereo not shown) [Compound 368, N1-(3-(1-cyclohexyl-1H-indol-3-yl)-3-(m-tolyl)propyl)-N3-methylpropane-1,3-diamine hydrochloride]	
> 512		298	240	N[C@@H](Cc1cn(CC2CCCCC2)c2ccccc12)C(=O)N[C@H]1CC[C@H](N)CC1 [Compound 264, (S)-2-amino-N-((1R,4S)-4-aminocyclohexyl)-3-(1-(cyclohexylmethyl)-1H-indol-3-yl)propanamide hydrochloride salt]	
67		18	17	Cc1cccc(C(CC(=O)NCC2CCC(N)CC2)c2cn(CC3CCCCC3)c3ccccc23)c1.Cl [Compound 180, N-(((1R,4R)-4-aminocyclohexyl)methyl)-3-(1-(cyclohexylmethyl)-1H-indol-3-yl)-3-(m-tolyl)propanamide hydrochloride salt]	
32		37	8	Cc1cccc(C(CC(=O)NC2CCNCC2)c2cn(CC3CCCCC3)c3ccccc23)c1.Cl (stereo not shown) [Compound 89, 3-(1-(cyclohexylmethyl)-1H-indol-3-yl)-N-(piperidin-4-yl)-3-(m-tolyl)propanamide hydrochloride salt]	
82		2.9	5	Cc1cccc(C(CC(=O)NC2CCC(N)CC2)c2cn(CC3CCCCC3)c3ccc(-c4ccccc4Cl)cc23)c1.Cl [Compound 224, N-((1S,4S)-4-aminocyclohexyl)-3-(5-(2-chlorophenyl)-1-(cyclohexylmethyl)-1H-indol-3-yl)-3-(m-tolyl)propanamide hydrochloride salt]	
> 512		1330	512	N[C@H]1CC[C@H](NC(=O)CC(c2cn(CC3CCCCC3)c3ccccc23)C2CCNCC2)CC1 (stereo partly shown) [Compound 107, N-((1r,4r)-4-aminocyclohexyl)-3-(1-(cyclohexylmethyl)-1H-indol-3-yl)-3-(piperidin-4-yl)propanamide hydrochloride salt]	
64		34	8	Cc1ccc(C(CC(=O)NC2CCC(N)CC2)c2cn(CC3CCCCC3)c3ccccc23)cc1.Cl [Compound 140, N-((1S,4S)-4-aminocyclohexyl)-3-(1-(cyclohexylmethyl)-1H-indol-3-yl)-3-(p-tolyl)propanamide hydrochloride salt]	
134		32	8	Cc1cccc(C(CC(=O)N[C@H]2CC[C@H](N)CC2)c2cn(C(C)C3CCCCC3)c3ccccc23)c1.Cl (stereo partly shown) [Compound 299, N-((1r,4r)-4-aminocyclohexyl)-3-(1-(1-cyclohexylethyl)-1H-indol-3-yl)-3-(m-tolyl)propanamide hydrochloride salt]	
64		68	16	Cc1cccc(C(CC(=O)NC2CCNCC2)c2cn(CC3CCCC3)c3ccccc23)c1.Cl (stereo not shown) [Compound 112, 3-(1-(cyclopentylmethyl)-1H-indol-3-yl)-N-(piperidin-4-yl)-3-(m-tolyl)propanamide hydrochloride salt]	
78		15	10	Cc1cccc(C(CC(=O)NC2CCNCC2)c2cn(CC3CCC(F)(F)CC3)c3ccc(Br)cc23)c1.Cl (stereo not shown) [Compound 287, 3-(5-bromo-1-((4,4-difluorocyclohexyl)methyl)-1H-indol-3-yl)-N-(piperidin-4-yl)-3-(m-tolyl)propanamide hydrochloride salt]	
65		14	8	Cc1cccc(C(CC(=O)N2CCC(CN)CC2)c2cn(CC3CCCCC3)c3ccccc23)c1.Cl (stereo not shown) [Compound 167, 1-(4-(aminomethyl)piperidin-1-yl)-3-(1-(cyclohexylmethyl)-1H-indol-3-yl)-3-(m-tolyl)propan-1-one hydrochloride salt]	
8		20	4	N[C@H]1CC[C@H](NCCCc2cn(CC3CCCCC3)c3ccc(Br)cc23)CC1 [Compound 211, (1R,4R)-N1-(3-(5-bromo-1-(cyclohexylmethyl)-1H-indol-3-yl)propyl)cyclohexane-1,4-diamine hydrochloride salt]	

The next lines start with the molecule.

Compound	MIC [2] [µg/mL]	MIC [1, 6] [µg/mL]	IC50 [3] [µM]	MIC [4] [µg/mL]	MIC [1, 5] [µg/mL]
COc1cccc(C(CCNC2CCNCC2)c2cn(C3CCCCC3)c3ccc(C#N)cc23)c1 (stereo not shown) [Compound 401, 1-cyclohexyl-3-(1-(3-methoxyphenyl)-3-(piperidin-4-ylamino)propyl)-1H-indole-5-carbonitrile hydrochloride salt]	16				16
Cc1cccc(C(CCNC2CCC(N)CC2)c2cn(CC3CCOCC3)c3ccc(C#N)cc23)c1 (stereo not shown) [Compound 312, 3-(3-((4-aminocyclohexyl)amino)-1-(m-tolyl)propyl)-1-((tetrahydro-2H-pyran-4-yl)methyl)-1H-indole-5-carbonitrile hydrochloride salt]	64				32
CCN(Cc1cn(CC2CCCCC2)c2ccccc12)CC1CCN(C)CC1 [Compound 303, N-((1-(cyclohexylmethyl)-1H-indol-3-yl)methyl)-N-((1-methylpiperidin-4-yl)methyl)ethanamine]	128 (≈ 335 µM)	128 (≈ 335 µM)			
COc1cccc(C(CCNC2CCC(N)CC2)c2cn(C3CCCCC3)c3ccc(C#N)cc23)c1 (stereo not shown) [Compound 400, 3-(3-(((1s,4s)-4-aminocyclohexyl)amino)-1-(3-methoxyphenyl)propyl)-1-cyclohexyl-1H-indole-5-carbonitrile hydrochloride salt]	16				16
Cc1cccc(C(CCNCCCN)c2cn(CC3CCOCC3)c3ccc(C#N)cc23)c1 (stereo not shown) [Compound 318, 3-(3-((3-aminopropyl)amino)-1-(m-tolyl)propyl)-1-((tetrahydro-2H-pyran-4-yl)methyl)-1H-indole-5-carbonitrile hydrochloride salt]	> 128				64
Cc1cccc(C(CCNC2CCC(N)CC2)c2cn(C3CCOCC3)c3ccccc23)c1 (stereo not shown) [Compound 307, N1-(3-(1-(tetrahydro-2H-pyran-4-yl)-1H-indol-3-yl)-3-(m-tolyl)propyl) cyclohexane-1,4-diamine hydrochloride salt]	64				64
COc1cccc(C(CCNCCCN)c2cn(C3CCCCC3)c3ccc(C#N)cc23)c1 (stereo not shown) [Compound 402, 3-(3-((3-aminopropyl)amino)-1-(3-methoxyphenyl)propyl)-1-cyclohexyl-1H-indole-5-carbonitrile hydrochloride salt]	16				8
Cc1cccc(C(CCNCC2CNCCO2)c2cn(C3CCCCC3)c3ccc(Br)cc23)c1 (stereo not shown) [Compound 405, 3-(5-bromo-1-cyclohexyl-1H-indol-3-yl)-N-(morpholin-2-ylmethyl)-3-(m-tolyl)propan-1-amine hydrochloride salt]	16				8
CN(Cc1cn(CC2CCCCC2)c2ccccc12)CC1CCNCC1 [Compound 301, 1-(1-(cyclohexylmethyl)-1H-indol-3-yl)-N-methyl-N-(piperidin-4-ylmethyl)methanamine hydrochloride salt]	128				128
Cc1cccc(C(CCNC2CCC(N)CC2)c2cn(CC3CCNCC3)c3ccccc23)c1 (stereo not shown) [Compound 313, N1-(3-(1-(piperidin-4-ylmethyl)-1H-indol-3-yl)-3-(m-tolyl)propyl)cyclohexane-1,4-diamine hydrochloride salt]	> 128				16
O=C(CC(c1cn(CC2CCCCC2)c2ccccc12)C1CCNCC1)NC1CCNCC1 (stereo not shown) [Compound 106, 3-(1-(cyclohexylmethyl)-1H-indol-3-yl)-N,3-di(piperidin-4-yl)propanamide hydrochloride salt]	512		1220	512	
Cc1cccc(C(CC(=O)N[C@H]2CC[C@H](N)CC2)c2cn(Cc3ccccc3)c3ccccc23)c1.Cl (stereo partly drawn) [Compound 64, N-((1R,4R)-4-aminocyclohexyl)-3-(1-benzyl-1H-indol-3-yl)-3-(m-tolyl)propanamide salt]	> 512		58	64	
